Assay results: patent US11141488B2, “Compositions comprising biodegradable copolymers for prolonged local release of an antibiotic” (DEXCEL PHARMA TECHNOLOGIES LTD., priority 2017, dated 2021)
Read-outs that look alike come from different tables or passages of the source.

Columns and labels:
[1] = Local and systemic gentamicin levels after single intramuscular injection in rabbits; type: in vivo, New Zealand White (NZW) rabbits; details: rabbit muscle
Method: Prior to injection, a skin incision was made in order to expose the muscle. The site of injection was marked by a non-absorbable suture at the upper layer of the muscle. […] Following injection, the skin was closed using surgical clips. The procedure was performed under general anesthesia. Animals were clinically observed for up to 8 weeks post-dosing, if applicable.
Tissue collection was performed by resecting the right paravertebral muscle, transversally slicing into ˜1 cm thick serial sections (total of 7 serial sections), when the injection site was located at the core center of the central section. […] At the injection site, one sample ( ? ) was taken.

[2] = rat skin tissue
Method: The site of injection was located at the right mid trunk area close to the spinal cord of the animals. The fur covering the flank and dorsal areas was removed by close clipping using an electric clipper up to 96 hours prior to dosing. Injections were performed using 18-19 G needle. The procedure was performed under general anesthesia. Blood samples were collected at 15 minutes, 30 minutes, 45 minutes, 1 hour, 1.5 hours, 2 hours, 4 hours, 6 hours, 8 hours, 24 hours, 48 hours, 72 hours, 1 week, 2 weeks, 3 weeks, 4 weeks, 6 weeks, and 8 weeks.
Blood samples were processed by centrifugation (3,000 G for 15 minutes at room temperature). Following centrifugation, plasma was removed into plastic tubes, followed by freezing using liquid nitrogen to (−70)-(−80)° C. for subsequent analysis.
Tissue collection was performed following removal of the dorsal trunk area by close clipping using an electrical clipper, if needed. The skin at the dorsal site of the animal was removed and pinned to a cork board. […] The injection site A is marked by a circular area of 1 cm in diameter (1×0.8 cm diameter sample). Circular strips B, C, and D each indicate 0.5 cm strips in width encircling circle (at least 4 samples were taken from each strip).
Thereafter, the samples were injected into a LC-MS/MS system (3 μl for samples at a concentration range of 2.5-170 μg/ml and 20 μl for samples at a concentration range of 0.075-2.5 μg/ml). […] Thereafter, 20 μl of the samples were injected into a LC-MS/MS system.
Sample concentrations were obtained by interpolation from the run defined calibration curve. The raw data was processed using AB SCIEX 1.5.1 software.

[3] = parenteral administration, levels exceeded for prolonged periods of time; cited from earlier work

gentamicin
local concentration of gentamicin, area B ([1]; area B of FIG. 4, 24 hours after single 0.2 ml IM injection of RA:SA (70:30) copolymer with 20 wt % gentamicin sulfate): 46 µg/mL | local concentration of gentamicin, area C ([1]; area C of FIG. 4, 24 hours after single 0.2 ml IM injection of RA:SA (70:30) copolymer with 20 wt % gentamicin sulfate): 3 µg/mL | local concentration of gentamicin, area D ([1]; area D of FIG. 4, 24 hours after single 0.2 ml IM injection of RA:SA (70:30) copolymer with 20 wt % gentamicin sulfate): 6 µg/mL | local concentration of gentamicin, area A ([1]; injection site, 24 hours after single 0.2 ml IM injection of RA:SA (70:30) copolymer with 20 wt % gentamicin sulfate): 765 µg/mL | local concentration of gentamicin, area A ([2]; injection site, 24 hours after single 0.2 ml SC injection of RA:SA (70:30) copolymer with 20 wt % gentamicin sulfate): 362 µg/mL | local concentration of gentamicin, area B ([2]; strip B of FIG. 8, 24 hours after single 0.2 ml SC injection of RA:SA (70:30) copolymer with 20 wt % gentamicin sulfate): 218 µg/mL | local concentration of gentamicin, area C ([2]; strip C of FIG. 8, 24 hours after single 0.2 ml SC injection of RA:SA (70:30) copolymer with 20 wt % gentamicin sulfate): 43 µg/mL | local concentration of gentamicin, area D ([2]; strip D of FIG. 8, 24 hours after single 0.2 ml SC injection of RA:SA (70:30) copolymer with 20 wt % gentamicin sulfate): 31 µg/mL | systemic levels above which ototoxicity and nephrotoxicity are induced [3]: 10 to 12 µg/mL
